How the values were obtained:
oral LD50 in mice = details: mouse, in vivo
intravenous LD50 = details: mouse, in vivo
Protocol: The corresponding intravenous LD50 is 30 mg./kg. Other LD50 values for compounds of the invention when dosed intravenously are as follows: […]

SMILES | LD50 (oral LD50 in mice) [mg/kg] | LD50 (intravenous LD50; mice, read-out: intravenous LD50) [mg/kg] | LD50 (intravenous LD50; table 1, read-out: LD50) [mg/kg]
CN1CCC2(CC1)c1ccccc1Sc1c(O)cccc12 [4-hydroxy-1'-methylthioxanthene-9-spiro-4'-piperidine] | > 500 | 30 | 
C=CCN1CCC2(CC1)c1ccccc1Sc1c(O)cccc12 [Allyl 4-OH H H H S, 4-hydroxy-1'-allylthioxanthene-9-spiro-4'-piperidine] |  |  | 43
CC(=O)Oc1cccc2c1Sc1cc(Cl)ccc1C21CCN(C)CC1 [Me 4-OAc H 6-Cl H S] |  |  | > 50
CCCN1CCC2(CC1)c1ccccc1Sc1c(O)cccc12 [n-Pr 4-OH H H H S] |  |  | 35

From patent US4001418A, “1'-Substituted-thioxanthene-9-spiro-4'-piperidine derivatives and the 10-oxides and 10,10-dioxides thereof” (priority 1974, dated 1977)
